The source of these data is patent publication US6620422B1, “Compositions containing a peptide and polylactic-glycolic acid suitable for preparing subcutaneous implants with an extended release period” (Mediolanum Farmaceutici S.p.A., priority 1998, dated 2003).

The nature of this data set: physchem.

Turning to `CCNC(=O)[C@@H]1CCCN1C(=O)[C@H](CCCNC(=N)N)NC(=O)[C@H](CC(C)C)NC(=O)[C@@H](Cc1c(C)[nH]c2ccccc12)NC(=O)[C@H](Cc1ccc(O)cc1)NC(=O)[C@H](CO)NC(=O)[C@H](Cc1c[nH]c2ccccc12)NC(=O)[C@H](Cc1c[nH]cn1)NC(=O)[C@@H]1CCC(=O)N1` [avoreline, 5-oxo-L-prolyl-L-histidil-L-tryptophil-L-seryl-L-tyrosil-2-methyl-D-tryptophil-L-leucyl-L-arginyl-N-ethyl-prolylamide], the pKa is, setting by setting: (pKa) 9.7; (pKa (first value)) 6.15; (pKa (third printed value)) 12.

In general, pKa refers to the negative logarithm of the acid dissociation constant. A high value points to a group that holds its proton tightly.
